Source: article PMC7539012, “Hyperphosphorylated tau aggregation and cytotoxicity modulators screen identified prescription drugs linked to Alzheimer's disease and cognitive functions” (Scientific Reports, 2020)
Counter-ions that a name gives are not always drawn. Where a SMILES comes first, the peptide text is derived from it. Bridges are numbered along the chain shown (N, C = ends). [ ]: non-standard residue; d: D form. The star is where a group is joined. X2 = CCC(C)C(N)C1=NC(C(=O)*)CS1; dOrn = NCCC[C@@H](N)C(=O)O

The molecules below were run on T1, 1N4R p-tau (assay: p-tau aggregation modulator screen of 1280-compound library (ThS fluorescence net change over 16 h)). Details: not given.
T1 construct: made in house; host or cells: E. coli (PIMAX system)
Assay type: biochemical
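Also: 30 µM compound with 6 µM p-tau over 16 h.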

Molecule | ThS net change
CC(=O)[C@H]1CC[C@H]2[C@@H]3CC[C@H]4C[C@H](O)CC[C@]4(C)[C@H]3C(=O)C[C@]12C [Alfaxalone] | 420
C[C@@H]1C[C@@H]([C@H](O)CC2CC(=O)NC(=O)C2)C(=O)[C@@H](C)C1 [Cycloheximide] | 442
Cc1ccc(O)c([C@H](CCN(C(C)C)C(C)C)c2ccccc2)c1 [Tolterodine tartrate] | 422
Cc1onc(-c2c(Cl)cccc2Cl)c1C(=O)N[C@@H]1C(=O)N2[C@@H]1SC(C)(C)[C@@H]2C(=O)[O-].O.[Na+] [Dicloxacillin sodium salt hydrate] | 415
Cl.Oc1noc2c1CCNC2 [THIP Hydrochloride] | 448
CCCCc1ccc2[nH]c(NC(=O)OC)nc2c1 [Parbendazole] | 465
CCN(CC)Cc1cc(Nc2ccnc3cc(Cl)ccc23)ccc1O.Cl.Cl.O.O [Amodiaquin dihydrochloride dihydrate] | 309
C[C@@H]1O[C@@H](O[C@@H]2C=C3CC[C@@H]4[C@H](CC[C@]5(C)[C@@H](c6ccc(=O)oc6)CC[C@]45O)[C@@]3(C)CC2)[C@H](O)[C@H](O)[C@H]1O [Proscillaridin A] | 498
O=C(O)COCCN1CCN(C(c2ccccc2)c2ccc(Cl)cc2)CC1 (stereo not drawn) [Cetirizine dihydrochloride] | 373

Same assay, conditions: 1280-compound library screen; ThS fluorescence net change over 16 h

Molecule | ThS net change
CCOC(=O)c1ccc(N)cc1 [Benzocaine] | 379
Cl.O=C1OC(CN2CCOCC2)CN1/N=C/c1ccc([N+](=O)[O-])o1 (stereo not drawn) [Furaltadone hydrochloride] | 385
Nc1ccc(S(=O)(=O)c2ccc(N)cc2)cc1 [Dapsone] | 382
COc1cc([S+](C)[O-])ccc1-c1nc2ncccc2[nH]1 (stereo not drawn) [Sulmazole] | 406
CC12CC3CC(C)(C1)CC(N)(C3)C2 [Memantine Hydrochloride] | 405
CC(C)NCC(O)c1ccc(NS(C)(=O)=O)cc1 (stereo not drawn) [Sotalol hydrochloride] | 404
Cn1cc[nH]c1=S [Methimazole] | 393
CC(=O)Nc1ccc(OCC(O)CNC(C)C)cc1 (stereo not drawn) [Practolol] | 383
COc1c2occc2c(OC)c2c(=O)cc(C)oc12 [Khellin] | 389
CCCc1cc(C(N)=S)ccn1 [Prothionamide] | 412
CC(=O)O[C@]1(C(C)=O)CC[C@H]2[C@@H]3C=C(Cl)C4=CC(=O)CC[C@]4(C)[C@H]3CC[C@@]21C [Chlormadinone acetate] | 385
C#CCN(C)Cc1ccccc1 [Pargyline hydrochloride] | 389
O=C(NCCN1CCOCC1)c1ccc(Cl)cc1 [Moclobemide] | 393
COC(=O)Nc1nc2ccc(C(=O)c3cccs3)cc2[nH]1 [Nocodazole] | 409
COCCc1ccc(OCC(O)CNC(C)C)cc1.COCCc1ccc(OCC(O)CNC(C)C)cc1.O=C(O)C(O)C(O)C(=O)O (racemic) [Metoprolol-(+,-) (+)-tartrate salt] | 390
C#Cc1cccc(Nc2ncnc3cc(OCCOC)c(OCCOC)cc23)c1 [Erlotinib] | 387
C[N+](C)(C)CCCCCCCCCC[N+](C)(C)C [Decamethonium bromide] | 390

Same assay, conditions: 1280-compound library screen; […]

Molecule | ThS net change
OC(c1ccccc1)(c1ccccc1)C1CCNCC1 [Azacyclonol] | 400
CC(Cc1ccccc1)NCCC(c1ccccc1)c1ccccc1 (stereo not drawn) [Prenylamine lactate] | 401
CC[C@@H](CO)NC(=O)[C@@H]1C=C2c3cccc4[nH]cc(c34)C[C@H]2N(C)C1 [Methylergometrine maleate] | 393

Same assay, conditions: library screen, ThS fluorescence net change over 16 h with p-tau

Molecule | ThS net change
CN1CCCN=C1/C=C/c1cccc(O)c1.CN1CCCN=C1/C=C/c1cccc(O)c1.O=C(O)c1cc2ccccc2c(Cc2c(O)c(C(=O)O)cc3ccccc23)c1O [Oxantel pamoate] | 208
O=C1CN(/N=C/c2ccc(-c3ccc([N+](=O)[O-])cc3)o2)C([O-])=N1.[Na+] [Dantrolene sodium salt] | 286
CC(=O)Oc1cccc2c1C(=O)c1c(OC(C)=O)cc(C(=O)O)cc1C2=O [Diacerein] | 239
Oc1c(Cl)cc(Cl)c2cccnc12 [Chloroxine] | 288
CCN(CC)CCOC(=O)C(Cc1cccc2ccccc12)CC1CCCO1 (stereo not drawn) [Nafronyl oxalate] | 324

Same assay, conditions: p-tau aggregation modulator screen of 1280-compound library; ThS fluorescence net change

Molecule | ThS net change
CNCCCC12CCC(c3ccccc31)c1ccccc12 [Maprotiline hydrochloride] | 370
Cc1cc(C(C)(C)CC(C)(C)C)ccc1OCCOCC[N+](C)(C)Cc1ccccc1.[Cl-] [Methyl benzethonium chloride] | 348
OCCN1CCN(CCCN2c3ccccc3Sc3ccc(Cl)cc32)CC1 [Perphenazine] | 328
O=c1[nH]c(=O)n([C@H]2C[C@H](O)[C@@H](CO)O2)cc1I [Idoxuridine] | 359
C=CC(N)CCC(=O)O (stereo not drawn) [Vigabatrin] | 362
O=C(NCCO[N+](=O)[O-])c1cccnc1 [Nicorandil] | 376
CCOC(=O)C1=C(C)NC(C)=C(C(=O)OC)C1c1cccc([N+](=O)[O-])c1 (stereo not drawn) [Nitrendipine] | 344
CC(C(=O)O)c1cccc(C(=O)c2ccccc2)c1 (stereo not drawn) [Ketoprofen] | 376
O=C1O[C@H]([C@@H](O)CO)C(O)=C1O [Ascorbic acid] | 361
COCCOC(=O)C1=C(C)NC(C)=C(C(=O)OC(C)C)C1c1cccc([N+](=O)[O-])c1 (stereo not drawn) [Nimodipine] | 343
Cl.NC1CCN(c2nc3c(cc2F)c(=O)c(C(=O)O)cn3-c2ccc(F)cc2F)C1 (stereo not drawn) [Tosufloxacin hydrochloride] | 354
CCOC(=O)C1=C[C@]2(CC)CCCN3CCc4c(n1c1ccccc41)[C@@H]32 [Vinpocetine] | 370
O=C1c2ccccc2S(=O)(=O)N1CCCCN1CCN(c2ncccn2)CC1 [Ipsapirone] | 374
NC[C@H]1O[C@H](O[C@H]2[C@H](O)[C@@H](O[C@H]3O[C@H](CO)[C@@H](O)[C@H](N)[C@H]3O)[C@H](N)C[C@@H]2N)[C@H](N)C[C@@H]1O [Tobramycin] | 360
OCCN1CCN(CCCN2c3ccccc3C=Cc3ccccc32)CC1 [Opipramol dihydrochloride] | 343
Cc1ccc(C(=O)c2ccc(CC(=O)O)n2C)cc1 [Tolmetin sodium salt dihydrate] | 364

Same assay, conditions: p-tau aggregation modulator screen of 1280-compound library; […]

Molecule | ThS net change
C=CCC1(CC(C)C)C(=O)NC(=O)NC1=O [Butalbital] | 374
CC[C@@]1(O)C(=O)OCc2c1cc1n(c2=O)Cc2cc3ccccc3nc2-1 [Camptothecine (S,+)] | 350
COP(=O)(OC)C(O)C(Cl)(Cl)Cl (stereo not drawn) [Trichlorfon] | 340

Same assay, conditions: p-tau aggregation modulator screen of the compound library, ThS fluorescence net change

Molecule | ThS net change
CC(=O)OCC(CCn1cnc2cnc(N)nc21)COC(C)=O [Famciclovir] | 459
NC12CC3CC(CC(C3)C1)C2.NC12CC3CC(CC(C3)C1)C2.O=C(O)/C=C/C(=O)O [Adamantamine fumarate] | 423
CC1(O)CCOC(=O)C1 (stereo not drawn) [Mevalonic-D, L acid lactone] | 438
Nc1ccccc1S(N)(=O)=O [2-Aminobenzenesulfonamide] | 430
CN1[C@@H]2CC[C@H]1CC(OC1c3ccccc3CCc3ccccc31)C2.O=C(O)CC(O)(CC(=O)O)C(=O)O (stereo partly drawn) [Deptropine citrate] | 455
CC[C@H]1OC(=O)[C@H](C)[C@@H](O[C@H]2C[C@@](C)(OC)[C@@H](O)[C@H](C)O2)[C@H](C)[C@@H](O[C@@H]2O[C@H](C)C[C@H](N(C)C)[C@H]2O)[C@](C)(O)C[C@@H](C)CN(C)[C@H](C)[C@@H](O)[C@]1(C)O [Azithromycin] | 467
CCC(C)C(N)C1=NC(C(=O)N[C@@H](CC(C)C)C(=O)N[C@H](CCC(=O)O)C(=O)N[C@H](C(=O)N[C@H]2CCCCNC(=O)[C@H](CC(N)=O)NC(=O)[C@@H](CC(=O)O)NC(=O)[C@H](Cc3cnc[nH]3)NC(=O)[C@@H](Cc3ccccc3)NC(=O)[C@H]([C@@H](C)CC)NC(=O)[C@@H](CCCN)NC2=O)[C@@H](C)CC)CS1 (stereo partly drawn) [Bacitracin] (X2-L[dE]IK[dOrn]I[dF]H[dD]N; lactam 4-C) | 479
Nc1ccc(S(=O)(=O)Nc2ccc(Cl)nn2)cc1 [Sulfachloropyridazine] | 413
C[C@@H](O[C@H]1OCCN(Cc2n[nH]c(=O)[nH]2)[C@H]1c1ccc(F)cc1)c1cc(C(F)(F)F)cc(C(F)(F)F)c1 [Aprepitant] | 451
Clc1ccc(C(c2ccccc2Cl)C(Cl)Cl)cc1 (stereo not drawn) [Mitotane] | 449
COc1cc(NS(=O)(=O)c2ccc(N)cc2)ncn1 [Sulfamonomethoxine] | 419
COc1ccccc1OCC(O)CN1CCN(CC(=O)Nc2c(C)cccc2C)CC1 (stereo not drawn) [Ranolazine] | 414
CO/N=C(\C(=O)N[C@@H]1C(=O)N2C(C(=O)O)=C(C[N+]3(C)CCCC3)CS[C@H]12)c1csc(N)n1 [Cefepime hydrochloride] | 418
CCOC(=O)C1=C(C)NC(C)=C(C(=O)OCC)C1c1ccccc1/C=C/C(=O)OC(C)(C)C [Lacidipine] | 452
CC1(C)[C@@H](OC(=O)CCC(=O)O)CC[C@]2(C)[C@H]3C(=O)C=C4[C@@H]5C[C@@](C)(C(=O)O)CC[C@]5(C)CC[C@@]4(C)[C@]3(C)CC[C@@H]12 [Carbenoxolone disodium salt] | 460
CCC(=O)O[C@@H](O[P@](=O)(CCCCc1ccccc1)CC(=O)N1C[C@H](C2CCCCC2)C[C@H]1C(=O)O)C(C)C [Fosinopril] | 587
CC(=O)Oc1ccccc1C(=O)O [Acetylsalicylic acid] | 492
Josamycin | 446
CO[C@@]1(NC(=O)C(C(=O)O)c2ccc(O)cc2)C(=O)N2C(C(=O)O)=C(CSc3nnnn3C)CO[C@@H]21 (stereo partly drawn) [Moxalactam disodium salt] | 419
